# Where a SMILES comes first, the peptide text is derived from it. Bridges are numbered along the chain shown (N, C = ends). Roman numbers before positions name the chains, in order. [ ]: non-standard residue; d: D form. dDab = NCC[C@@H](N)C(=O)O; Orn = NCCC[C@H](N)C(=O)O; Dab = NCC[C@H](N)C(=O)O; Dap = NC[C@H](N)C(=O)O
# Tests used:
# [1] = system: male ICR mice; experiment: Tolerability in a mouse model (Maximum Tolerated Dose assay); type: in vivo; details: 2 × 40 mg/kg s.c. at a 12-hr interval, groups of 3
# How it was run: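 Peptides in 0.9% NaCl (pH 6.5-7.6) given s.c. at 30 or 40 mg/kg, twice 12 h apart, to groups of 3 male ICR mice (23±3 g). Acute toxic signs (mortality, convulsions, tremors, sedation) and autonomic effects (diarrhea, salivation, piloerection) observed for 30 min after each dose.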
# [2] = system: Enterobacter cloacae 848840; type: cell-based; details: 848840
# How it was run: (§1)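 Cation-adjusted MH-II broth, 0.002% polysorbate 80, inoculum near 10^6 CFU/mL. MIC read visually after 18-20 h, 35° C; units μg/mL.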
# [3] = system: Pseudomonas aeruginosa ATCC 27853; type: cell-based; details: ATCC 27853
# How it was run: as §1
# [4] = system: Escherichia coli 926415; type: cell-based; details: 926415
# How it was run: as §1
# [5] = system: Acinetobacter baumannii 872842; type: cell-based; details: 872842
# How it was run: as §1
# [6] = system: Acinetobacter baumannii DSM 30008; type: cell-based; details: DSM 30008
# How it was run: as §1
# [7] = system: Escherichia coli ATCC 25922; type: cell-based; details: ATCC 25922
# How it was run: as §1
# [8] = system: Klebsiella pneumoniae 968733; type: cell-based; details: 968733
# How it was run: as §1
# [9] = system: Klebsiella pneumoniae SSI #3010; type: cell-based; details: SSI #3010
# How it was run: as §1
# [10] = system: human red blood cells (hRBC); experiment: Hemolysis; type: cell-based; details: red cells of human, 1 h, 200
# How it was run: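 Washed fresh hRBC (20% v/v) were incubated with peptides at 200 μg/mL for 1 h at 37° C with shaking at 300 rpm. Supernatant OD540 was read after centrifugation and dilution, blank-corrected, and expressed as percent of the 2% Triton X-100 (100% lysis) control; PBS with 10% water gave 0%.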
Structure (SMILES),Mortality and dose [1],MIC [2] [µg/mL],Pseudomonas aeruginosa ATCC 27853 MIC [3] [µg/mL],MIC [4] [µg/mL],MIC [5] [µg/mL],Acinetobacter baumannii DSM 30008 MIC [6] [µg/mL],Escherichia coli ATCC 25922 MIC [7] [µg/mL],MIC [8] [µg/mL],Klebsiella pneumoniae SSI #3010 MIC [9] [µg/mL],Hemolysis at 200 μg/mL [10] [%]
CC(=O)N[C@H](C(=O)N[C@H]1CSSC[C@@H](C(=O)N[C@@H](CO)C(N)=O)NC(=O)[C@H](C(C)C)NC(=O)[C@H](CO)NC(=O)[C@H](Cc2c[nH]c3ccccc23)NC(=O)[C@H](CCC(=O)N[C@@H](CCN)C(=O)N[C@H](C(=O)N[C@@H](CN)C(=O)N[C@H]2CCNC(=O)[C@H]([C@@H](C)O)NC(=O)[C@H](CCN)NC(=O)[C@H](CCN)NC(=O)[C@H](CC(C)C)NC(=O)[C@@H](CC(C)C)NC(=O)[C@H](CCN)NC2=O)[C@@H](C)O)NC(=O)[C@@H](CCN)NC(=O)[C@H](Cc2c[nH]cn2)NC(=O)[C@H](CO)NC(=O)[C@H](Cc2ccc(O)cc2)NC1=O)C(C)C [Ex. 358] (I: Ac-VCYSH[dDab]EWSVCS-NH2 / II: [Dab]T[Dap][Dab][Dab][dL]L[Dab][Dab]T; disulfide I:2-I:11; amide I:7-II:N; lactam II:4-II:C),0/3 died at 2 × 40 mg/kg,0.125,0.125,0.25,0.0625,0.03125,0.03125,0.25,0.125,1
CC(=O)N[C@H](C(=O)N[C@H]1CSSC[C@@H](C(=O)N[C@@H](CO)C(N)=O)NC(=O)[C@H](C(C)C)NC(=O)[C@H](CO)NC(=O)[C@H](Cc2c[nH]c3ccccc23)NC(=O)[C@H](CCC(=O)N[C@@H](CCN)C(=O)N[C@H](C(=O)N[C@@H](CN)C(=O)N[C@H]2CCNC(=O)[C@H]([C@@H](C)O)NC(=O)[C@H](CCN)NC(=O)[C@H](CCN)NC(=O)[C@H](CC(C)C)NC(=O)[C@@H](CC(C)C)NC(=O)[C@H](CCN)NC2=O)[C@@H](C)O)NC(=O)[C@@H](CCN)NC(=O)[C@H](CCCN)NC(=O)[C@H](CCN)NC(=O)[C@H](Cc2ccc(O)cc2)NC1=O)C(C)C [Ex. 359] (I: Ac-VCY[Dab][Orn][dDab]EWSVCS-NH2 / II: [Dab]T[Dap][Dab][Dab][dL]L[Dab][Dab]T; disulfide I:2-I:11; amide I:7-II:N; lactam II:4-II:C),0/3 died at 2 × 40 mg/kg,0.125,0.125,0.25,0.125,0.0625,0.0625,0.5,0.125,1
CC(=O)N[C@H](C(=O)N[C@H]1CSSC[C@@H](C(=O)N[C@@H](CO)C(N)=O)NC(=O)[C@H](C(C)C)NC(=O)[C@H](CO)NC(=O)[C@H](Cc2c[nH]c3ccccc23)NC(=O)[C@H](CCC(=O)N[C@@H](CCN)C(=O)N[C@H](C(=O)N[C@@H](CN)C(=O)N[C@H]2CCNC(=O)[C@H]([C@@H](C)O)NC(=O)[C@H](CCN)NC(=O)[C@H](CCN)NC(=O)[C@H](CC(C)C)NC(=O)[C@@H](CC(C)C)NC(=O)[C@H](CCN)NC2=O)[C@@H](C)O)NC(=O)[C@@H](CCN)NC(=O)[C@H](C)NC(=O)[C@H](CCN)NC(=O)[C@H](Cc2ccc(O)cc2)NC1=O)C(C)C [Ex. 361] (I: Ac-VCY[Dab]A[dDab]EWSVCS-NH2 / II: [Dab]T[Dap][Dab][Dab][dL]L[Dab][Dab]T; disulfide I:2-I:11; amide I:7-II:N; lactam II:4-II:C),0/3 died at 2 × 40 mg/kg,0.0625,0.125,0.125,0.0625,0.0625,0.0625,0.125,0.0625,<1

# Source: patent publication US11629171B2, “Beta-hairpin peptidomimetics” (POLYPHOR AG, priority 2017, dated 2023)
